From patent US8343475B2, “Small cationic antimicrobial peptides” (priority 2006, dated 2013)

What was measured:
Assay in all cases: Chemokine induction in PBMC (capture ELISA)
Format in all cases: cell-based
[1] = test system: MCP-3 release by human PBMC; conditions: background (6) subtracted
Method: FIG. 16. Induction of MCP3 release by 7.5×10^5 human PBMC in response to treatment with 20 or 100 μg/ml of different peptides for 24 hours.
(§1) Venous blood (20 ml) from healthy volunteers was collected in Vacutainer® collection tubes containing sodium heparin as an anticoagulant (Becton Dickinson, Mississauga, ON) in accordance with UBC ethical approval and guidelines. Blood was diluted 1:1 with complete RPMI 1640 medium and separated by centrifugation over a Ficoll-Paque® Plus (Amersham Biosciences, Piscataway, N.J., USA) density gradient. White blood cells were isolated from the buffy coat, washed twice in RPMI 1640 complete medium, and the number of peripheral blood mononuclear cells (PBMC) was determined by trypan blue exclusion. PBMC (5×10^5) were seeded into 12-well tissue culture dishes (Falcon; Becton Dickinson) at 0.75 to 1×10^6 cells/ml at 37° C. in 5% CO2. The above conditions were chosen to mimic conditions for circulating blood monocytes entering tissues at the site of infection via extravasation.
(§2) Following incubation of the cells under various treatment regimens, the tissue culture supernatants were centrifuged at 1000×g for 5 min, then at 10,000×g for 2 min to obtain cell-free samples. Supernatants were aliquoted and then stored at −20° C. prior to assay for various chemokines by capture ELISA (eBioscience and BioSource International Inc., CA, USA respectively)

[2] = test system: MCP-1 release by human PBMC; conditions: background (204) subtracted
Method: FIG. 15. Induction of MCP-1 release by 7.5×10^5 human PBMC in response to treatment with 20 or 100 μg/ml of different peptides for 24 hours.
as §1, §2

[3] = test system: CXCL1 (Gro-α) release by human PBMC; conditions: background (196) subtracted
Method: FIG. 17. Induction of CXCL1 (Gro-α) release by 7.5×10^5 human PBMC in response to treatment with 20 or 100 μg/ml of different peptides for 24 hours.
as §1, §2

Substance	Chemokine induction MCP-3 ([1]; 20 μg/ml peptide) [pg/mL]	Chemokine induction MCP-3 ([1]; 100 μg/ml peptide) [pg/mL]	Chemokine induction MCP-1 ([2]; 20 μg/ml peptide) [pg/mL]	Chemokine induction MCP-1 ([2]; 100 μg/ml peptide) [pg/mL]	Chemokine induction Gro-α ([3]; 20 μg/ml peptide) [pg/mL]	Chemokine induction Gro-α ([3]; 100 μg/ml peptide) [pg/mL]
1003 (IVWKIKRWWVGR) [compound 1003]	0	5	31	1361	65	170
1004 (RFWKVRVKYIRF) [compound 1004]	1	30	300	1680	55	336
1007 (WNRVKWIRR) [compound 1007]	7	28	103	247	65	170
1008 (RIKWIVRFR) [compound 1008]	1	22	633	1775	109	869
1009 (AIRVVRARLVRR) [compound 1009]	6	6	634	1093	230	377
1011 (RRWVVWRIVQRR) [compound 1011]	1	35	579	2282	46	308
1014 (RQVIVRRW) [compound 1014]	0	1	83	175	6	15
1015 (VLIRWNGKK) [compound 1015]	0	10	113	644	42	178
1016 (LRIRWIFKR) [compound 1016]	1	27	269	819	26	247
1017 (KRIVRRLVARIV) [compound 1017]	0	0	585	1019	56	250
1019 (IVVWRRQLVKNK) [compound 1019]	0	0	27	438	5	43
